Test results published in ChEMBL document CHEMBL1649448, “Atorvastatin is a promising partner for antimalarial drugs in treatment of Plasmodium falciparum malaria” (Antimicrob Agents Chemother, 2009).

These molecules were tested on Plasmodium falciparum (assay: Antimalarial activity against Plasmodium falciparum 3D7 assessed as incorporation of [3H]hypoxanthine after 48 hrs by scintillation counter).
Assay type: functional, organism-based
Work on `CC(C)c1c(C(=O)Nc2ccccc2)c(-c2ccccc2)c(-c2ccc(F)cc2)n1CC[C@@H](O)C[C@@H](O)CC(=O)O` [ATORVASTATIN] yielded an IC50 of 2.5 µM.

What follows are molecules tested on Plasmodium falciparum (assay: Antimalarial activity against Plasmodium falciparum W2 assessed as incorporation of [3H]hypoxanthine after 48 hrs by scintillation counter).
Assay type: functional, organism-based
`CC(C)c1c(C(=O)Nc2ccccc2)c(-c2ccccc2)c(-c2ccc(F)cc2)n1CC[C@@H](O)C[C@@H](O)CC(=O)O` [ATORVASTATIN] showed an IC50 of 2.5 µM.

What follows are molecules tested on Plasmodium falciparum (assay: Antimalarial activity against Plasmodium falciparum D6 assessed as incorporation of [3H]hypoxanthine after 48 hrs by scintillation counter).
Assay type: functional, organism-based
Work on `CC(C)c1c(C(=O)Nc2ccccc2)c(-c2ccccc2)c(-c2ccc(F)cc2)n1CC[C@@H](O)C[C@@H](O)CC(=O)O` [ATORVASTATIN] yielded an IC50 of 2.5 µM.

These molecules were tested on Plasmodium falciparum (assay: Antimalarial activity against Plasmodium falciparum FCM29 assessed as incorporation of [3H]hypoxanthine after 48 hrs by scintillation counter).
Assay type: functional, organism-based
`CC(C)c1c(C(=O)Nc2ccccc2)c(-c2ccccc2)c(-c2ccc(F)cc2)n1CC[C@@H](O)C[C@@H](O)CC(=O)O` [ATORVASTATIN] was tested, and the IC50 was 2.5 µM.

Each molecule was assayed on Plasmodium falciparum (assay: Antimalarial activity against Plasmodium falciparum FCR3 assessed as incorporation of [3H]hypoxanthine after 48 hrs by scintillation counter).
Assay type: functional, organism-based
`CC(C)c1c(C(=O)Nc2ccccc2)c(-c2ccccc2)c(-c2ccc(F)cc2)n1CC[C@@H](O)C[C@@H](O)CC(=O)O` [ATORVASTATIN] showed an IC50 of 2.5 µM.

What follows are molecules tested on Plasmodium falciparum (assay: Antimalarial activity against Plasmodium falciparum PA assessed as incorporation of [3H]hypoxanthine after 48 hrs by scintillation counter).
Assay type: functional, organism-based
`CC(C)c1c(C(=O)Nc2ccccc2)c(-c2ccccc2)c(-c2ccc(F)cc2)n1CC[C@@H](O)C[C@@H](O)CC(=O)O` [ATORVASTATIN] was tested, and the IC50 was 2.5 µM.

The molecules below were run on Plasmodium falciparum (assay: Antimalarial activity against Plasmodium falciparum HB3 assessed as incorporation of [3H]hypoxanthine after 48 hrs by scintillation counter).
Assay type: functional, organism-based
In the case of `CC(C)c1c(C(=O)Nc2ccccc2)c(-c2ccccc2)c(-c2ccc(F)cc2)n1CC[C@@H](O)C[C@@H](O)CC(=O)O` [ATORVASTATIN], the IC50 is reported as 2.5 µM.

The molecules below were run on Plasmodium falciparum (assay: Antimalarial activity against Plasmodium falciparum 106/1 assessed as incorporation of [3H]hypoxanthine after 48 hrs by scintillation counter).
Assay type: functional, organism-based
Molecule `CC(C)c1c(C(=O)Nc2ccccc2)c(-c2ccccc2)c(-c2ccc(F)cc2)n1CC[C@@H](O)C[C@@H](O)CC(=O)O` [ATORVASTATIN] has an IC50 of 2.5 µM.

Each molecule was assayed on Plasmodium falciparum (assay: Antimalarial activity against Plasmodium falciparum IMT Bres assessed as incorporation of [3H]hypoxanthine after 48 hrs by scintillation counter).
Assay type: functional, organism-based
`CC(C)c1c(C(=O)Nc2ccccc2)c(-c2ccccc2)c(-c2ccc(F)cc2)n1CC[C@@H](O)C[C@@H](O)CC(=O)O` [ATORVASTATIN] gave an IC50 of 2.5 µM.

These molecules were tested on Plasmodium falciparum (assay: Antimalarial activity against Plasmodium falciparum IMT Guy assessed as incorporation of [3H]hypoxanthine after 48 hrs by scintillation counter).
Assay type: functional, organism-based
With `CC(C)c1c(C(=O)Nc2ccccc2)c(-c2ccccc2)c(-c2ccc(F)cc2)n1CC[C@@H](O)C[C@@H](O)CC(=O)O` [ATORVASTATIN] the IC50 was 2.5 µM.

The molecules below were run on Plasmodium falciparum (assay: Antimalarial activity against Plasmodium falciparum IMT A4 assessed as incorporation of [3H]hypoxanthine after 48 hrs by scintillation counter).
Assay type: functional, organism-based
`CC(C)c1c(C(=O)Nc2ccccc2)c(-c2ccccc2)c(-c2ccc(F)cc2)n1CC[C@@H](O)C[C@@H](O)CC(=O)O` [ATORVASTATIN] gave an IC50 of 2.5 µM.

The molecules below were run on Plasmodium falciparum (assay: Antimalarial activity against Plasmodium falciparum IMT 31 assessed as incorporation of [3H]hypoxanthine after 48 hrs by scintillation counter).
Assay type: functional, organism-based
`CC(C)c1c(C(=O)Nc2ccccc2)c(-c2ccccc2)c(-c2ccc(F)cc2)n1CC[C@@H](O)C[C@@H](O)CC(=O)O` [ATORVASTATIN] showed an IC50 of 2.5 µM.

Each molecule was assayed on Plasmodium falciparum (assay: Antimalarial activity against Plasmodium falciparum IMT 8425 assessed as incorporation of [3H]hypoxanthine after 48 hrs by scintillation counter).
Assay type: functional, organism-based
`CC(C)c1c(C(=O)Nc2ccccc2)c(-c2ccccc2)c(-c2ccc(F)cc2)n1CC[C@@H](O)C[C@@H](O)CC(=O)O` [ATORVASTATIN] showed an IC50 of 2.5 µM.

What follows are molecules tested on Plasmodium falciparum (assay: Antimalarial activity against Plasmodium falciparum IMT 9881 assessed as incorporation of [3H]hypoxanthine after 48 hrs by scintillation counter).
Assay type: functional, organism-based
In the case of `CC(C)c1c(C(=O)Nc2ccccc2)c(-c2ccccc2)c(-c2ccc(F)cc2)n1CC[C@@H](O)C[C@@H](O)CC(=O)O` [ATORVASTATIN], the IC50 is reported as 2.5 µM.

The molecules below were run on Plasmodium falciparum (assay: Antimalarial activity against Plasmodium falciparum IMT 10336 assessed as incorporation of [3H]hypoxanthine after 48 hrs by scintillation counter).
Assay type: functional, organism-based
Molecule `CC(C)c1c(C(=O)Nc2ccccc2)c(-c2ccccc2)c(-c2ccc(F)cc2)n1CC[C@@H](O)C[C@@H](O)CC(=O)O` [ATORVASTATIN] has an IC50 of 2.5 µM.

The molecules below were run on Plasmodium falciparum (assay: Antimalarial activity against Plasmodium falciparum IMT 10500 assessed as incorporation of [3H]hypoxanthine after 48 hrs by scintillation counter).
Assay type: functional, organism-based
Work on `CC(C)c1c(C(=O)Nc2ccccc2)c(-c2ccccc2)c(-c2ccc(F)cc2)n1CC[C@@H](O)C[C@@H](O)CC(=O)O` [ATORVASTATIN] yielded an IC50 of 2.5 µM.

What follows are molecules tested on Plasmodium falciparum (assay: Antimalarial activity against Plasmodium falciparum IMT 16332 assessed as incorporation of [3H]hypoxanthine after 48 hrs by scintillation counter).
Assay type: functional, organism-based
In the case of `CC(C)c1c(C(=O)Nc2ccccc2)c(-c2ccccc2)c(-c2ccc(F)cc2)n1CC[C@@H](O)C[C@@H](O)CC(=O)O` [ATORVASTATIN], the IC50 is reported as 2.5 µM.

These molecules were tested on Plasmodium falciparum (assay: Antimalarial activity against Plasmodium falciparum IMT K14 assessed as incorporation of [3H]hypoxanthine after 48 hrs by scintillation counter).
Assay type: functional, organism-based
Work on `CC(C)c1c(C(=O)Nc2ccccc2)c(-c2ccccc2)c(-c2ccc(F)cc2)n1CC[C@@H](O)C[C@@H](O)CC(=O)O` [ATORVASTATIN] yielded an IC50 of 2.5 µM.

What follows are molecules tested on Plasmodium falciparum (assay: Antimalarial activity against Plasmodium falciparum IMT K2 assessed as incorporation of [3H]hypoxanthine after 48 hrs by scintillation counter).
Assay type: functional, organism-based
`CC(C)c1c(C(=O)Nc2ccccc2)c(-c2ccccc2)c(-c2ccc(F)cc2)n1CC[C@@H](O)C[C@@H](O)CC(=O)O` [ATORVASTATIN] gave an IC50 of 2.5 µM.

What follows are molecules tested on Plasmodium falciparum (assay: Antimalarial activity against Plasmodium falciparum IMT K4 assessed as incorporation of [3H]hypoxanthine after 48 hrs by scintillation counter).
Assay type: functional, organism-based
`CC(C)c1c(C(=O)Nc2ccccc2)c(-c2ccccc2)c(-c2ccc(F)cc2)n1CC[C@@H](O)C[C@@H](O)CC(=O)O` [ATORVASTATIN] was tested, and the IC50 was 2.5 µM.

Each molecule was assayed on Plasmodium falciparum (assay: Antimalarial activity against Plasmodium falciparum IMT L1 assessed as incorporation of [3H]hypoxanthine after 48 hrs by scintillation counter).
Assay type: functional, organism-based
`CC(C)c1c(C(=O)Nc2ccccc2)c(-c2ccccc2)c(-c2ccc(F)cc2)n1CC[C@@H](O)C[C@@H](O)CC(=O)O` [ATORVASTATIN] gave an IC50 of 2.5 µM.
